The compounds below were run against T1, Complement C1s subcomponent (Homo sapiens, UniProt P09871) (assay: Enzymatic Assay). Details: pH 8.05; 25.50 °C.
T1 sequence (P09871 whole entry): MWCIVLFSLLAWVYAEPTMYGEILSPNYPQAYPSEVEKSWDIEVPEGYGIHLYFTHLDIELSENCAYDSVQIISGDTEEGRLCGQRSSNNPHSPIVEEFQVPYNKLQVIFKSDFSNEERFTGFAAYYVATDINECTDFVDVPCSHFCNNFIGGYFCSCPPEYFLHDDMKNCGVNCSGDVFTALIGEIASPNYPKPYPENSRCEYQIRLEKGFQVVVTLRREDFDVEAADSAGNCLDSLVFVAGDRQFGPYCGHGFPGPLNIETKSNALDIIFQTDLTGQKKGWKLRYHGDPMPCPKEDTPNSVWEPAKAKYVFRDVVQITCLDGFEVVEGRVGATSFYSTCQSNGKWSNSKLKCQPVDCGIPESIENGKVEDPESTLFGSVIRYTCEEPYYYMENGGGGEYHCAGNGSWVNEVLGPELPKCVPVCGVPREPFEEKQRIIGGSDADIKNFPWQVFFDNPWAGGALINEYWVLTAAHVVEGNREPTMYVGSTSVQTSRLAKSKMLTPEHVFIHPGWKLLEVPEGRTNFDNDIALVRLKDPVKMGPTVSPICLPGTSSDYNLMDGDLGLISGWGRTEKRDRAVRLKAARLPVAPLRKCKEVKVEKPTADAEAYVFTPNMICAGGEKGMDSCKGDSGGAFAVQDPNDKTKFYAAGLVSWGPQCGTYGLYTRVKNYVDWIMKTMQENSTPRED
Description: All readings were made in a Hitachi-Coleman ultraviolet-visible 101 spectrophotometer.

| Ki | SMILES |
| --- | --- |
| 92500 µM | N=C(N)c1ccc([N+](=O)[O-])cc1 [p-Nitrobenzamidine] |
| 370 µM | O=C(NC(Cc1ccc(O)cc1)C(=O)O)c1ccccc1 [N-z-L-Tyr] |
| 603 µM | N=C(N)c1ccccc1 [Benzamidine] |
| 13400 µM | CC(C)(C)CNC(=N)N [2,2'-Dimethyl-1-guanidinopropane] |
| 76.5 µM | Cc1nc(NC(=N)N)nc2ccccc12 [2-Guanidino-4-methylguinazoline] |
| 548 µM | N=C(N)Nc1ccccc1 [Alpha-Phenylguanidine] |
| 1120 µM | O=C(CCl)NC(Cc1ccc(O)cc1)C(=O)O [N-Chloroacetyl-L-tyrosine] |
| 4370 µM | N=C(N)NCC(=O)O [Guanidinacetic] |

| SMILES | Ki |
| --- | --- |
| N=C(N)NN [CAS_2146] | 18100 µM |

— BindingDB's records for doi:10.1021/bi00839a042 (Michigan State University, 1969)
